Reference: ChEMBL document CHEMBL3739270 (Medchemcomm, 2015)

How the values were obtained:
Format in all cases: cell-based
[1] = biological target: Melatonin receptor type 1A (Homo sapiens, UniProt P48039); experiment: Displacement of 2-[125I]-iodomelatonin from human melatonin receptor MT1 expressed in CHO cells after 1 hr by gamma counting analysis
[2] = biological target: T1, Melatonin receptor type 1B (Homo sapiens, UniProt P49286); experiment: Displacement of 2-[125I]-iodomelatonin from human melatonin receptor MT2 expressed in CHO cells after 1 hr by gamma counting analysis
T1 sequence (P49286 whole entry): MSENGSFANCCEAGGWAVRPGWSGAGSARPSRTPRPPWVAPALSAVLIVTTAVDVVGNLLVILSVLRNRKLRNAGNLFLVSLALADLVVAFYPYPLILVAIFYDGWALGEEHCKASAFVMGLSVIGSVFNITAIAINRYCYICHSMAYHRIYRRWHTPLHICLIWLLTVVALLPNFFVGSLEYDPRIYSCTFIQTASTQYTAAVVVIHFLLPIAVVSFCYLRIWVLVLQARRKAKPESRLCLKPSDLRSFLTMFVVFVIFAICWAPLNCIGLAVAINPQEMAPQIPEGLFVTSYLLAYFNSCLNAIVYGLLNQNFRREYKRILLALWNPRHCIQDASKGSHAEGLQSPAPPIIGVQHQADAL

CHO-K1 = experiment: Selectivity ratio, ratio of Ki for human melatonin receptor MT2 to Ki for human melatonin receptor MT1 expressed in CHO-K1 cells
CHO = experiment: Selectivity ratio, ratio of Ki for human melatonin receptor MT2 to Ki for human melatonin receptor MT1 expressed in CHO cells
HEK293 = experiment: Selectivity ratio, ratio of Ki for human melatonin receptor MT2 to Ki for human melatonin receptor MT1 expressed in HEK293 cells

Melatonin receptor type 1A, sequence (P48039 whole entry): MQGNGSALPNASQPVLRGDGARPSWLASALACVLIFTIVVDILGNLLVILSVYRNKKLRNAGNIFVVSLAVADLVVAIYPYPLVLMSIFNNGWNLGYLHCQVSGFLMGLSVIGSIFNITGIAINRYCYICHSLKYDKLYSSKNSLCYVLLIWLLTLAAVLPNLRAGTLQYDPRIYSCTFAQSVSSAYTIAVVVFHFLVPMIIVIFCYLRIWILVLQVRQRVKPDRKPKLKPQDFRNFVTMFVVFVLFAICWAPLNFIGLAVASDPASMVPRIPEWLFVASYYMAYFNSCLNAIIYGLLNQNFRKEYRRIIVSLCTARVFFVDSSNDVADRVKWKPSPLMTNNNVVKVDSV

SMILES | Ki ([1]; read-out: Ki) [nM] | Ki ([2]; read-out: Ki) [nM] | other results
CC(=O)NCCc1cccc2ccc(OCCCCc3ccccc3)cc12 | 9 | 9 | –
CCCCCCOc1ccc2c(c1)C(CCNC(C)=O)CCO2 (stereo not drawn) | – | – | Ratio Ki (CHO-K1): 30
O=C(NCCc1cccc2ccc(OCCCOc3ccc4cccc(CCNC(=O)C(F)F)c4c3)cc12)C(F)F | 1.2 | 8.1 | Ratio Ki (CHO): 7
O=C(NCCc1cccc2ccc(OCCCCOc3ccc4cccc(CCNC(=O)C(F)F)c4c3)cc12)C(F)F | 12 | 15 | –
CC(=O)NCCc1cccc2ccc(OCCCOc3ccccc3)cc12 | 35 | 44 | –
COc1ccc2cccc(CCNC(=O)C(Cl)Cl)c2c1 | 5 | 2 | –
COc1ccc2cccc(CCNC(=O)C(F)(F)F)c2c1 | 5 | 2 | –
COc1ccc2cccc(CCNC(=O)C(F)F)c2c1 | 0.054 | 0.85 | Ratio Ki (CHO): 16
CC(=O)NCCc1cccc2ccc(OCCCc3ccccc3)cc12 | 9 | 9 | Ki ([1]; read-out: pKi (converted)): 25.1 nM; Ki ([2]; read-out: pKi (converted)): 21.4 nM
CC(=O)NCCc1cccc2ccc(OCCCCOc3ccc4cccc(CCNC(C)=O)c4c3)cc12 | – | – | Ratio Ki (HEK293): 120
O=C(NCCc1c[nH]c2ccc(OCCCOc3ccccc3)cc12)C(F)F | 6.2 | 7.8 | Ratio Ki (CHO): 10
O=C(NCCCc1cccc2nc(CCCCc3ccccc3)oc12)C1CC1 | – | – | Ratio Ki (CHO-K1): 30
CC(=O)NCCc1cccc2ccc(OCCCOc3ccc4cccc(CCNC(C)=O)c4c3)cc12 | 112 | – | Ki ([2]; read-out: pKi (converted)): 355 nM
